The subject of test [1] is Male Long-Evans rats, facial nerve compression. Put plainly: In vivo Facial Nerve Compression Model. Also noted: species or system rat. As to conditions: for Percent Recovery of whisker movement D9 / Percent Recovery of whisker movement D10 / Percent Recovery of whisker movement D11 / Percent Recovery of whisker movement D12 / Percent Recovery of whisker movement D13 / Percent Recovery of whisker movement D14: test compounds p.o. 20 mg/kg bid, αMSH s.c. 70 ug/each 48 hr; for Percent Recovery of whisker movement D9: % of sham-operated side; for recovery time to restore whisker muscle movement: lesioned rats vs vehicle controls (p<0.05), p.o. 20 mg/kg bid. From the text: The ability of test compound to provide neuro-protective or neuro-regenerative effects was investigated in a facial nerve compression model. Facial nerve motor axons arise exclusively from neurons within the pons in a well-defined nucleus. Facial nerve compression results in retrograde reactions proximal to the lesion site and Wallerian degeneration at its distal part, which causes diminished whisker movement on the lesioned side.
Male Long-Evans rats (150–180 g) were anesthetized with 3–5% isoflorane for induction and 2% for maintenance during the surgical procedures. The right facial nerve was exposed and compressed with forceps for 30 sec at its exit from the stylomastoid foramen. The left facial nerve was sham-operated and served as an internal control. […] The following morphological abnormalities associated with the functional deficit were observed:
After recovery from anesthesia, the rats were randomly divided into groups for dosing with vehicle, αMSH or test compound, with 6 animals per group. αMSH (s.c., 70 ug/each 48 hr) was used as a positive control. Test compounds were dosed p.o. at 20 mg/kg bid for 14 days. Restoration of whisker movement was monitored daily after the operation using two criteria:
(1) frequency of whisker movement on the lesioned side relative to the opposite side (sham-operated) which served as the baseline control
(2) semi-quantitative measurements (0 to 4+) on strength of the whisker muscles, characterized based on observation of the percentage of moved whiskers, muscle tone of whisker muscles, and the position of the nose. For all observations, the experimental design was blind to the behavioral observer.
The recovery rate of the whisker movement was expressed as percentage of its own internal control (sham-operated), as listed in Table 8.

In the next test the test system is Food-Deprived Rats. The experiment in a line: Rodent Feeding: Food Intake in Food-Deprived Rats (MC-4). In kind it is in vivo, rat. The settings on record: Rattus norvegicus. From the text: Rodent Feeding: Food Intake in Food-Deprived Rats (MC-4)
Male Long-Evans rats (180–200 grams) were housed individually and maintained on a once-a-day feeding schedule (i.e.10 a.m. until 4 p.m.) for five days following quarantine to allow the animals to acclimate to feeding on powdered chow (#5002 PMI Certified Rodent Meal) during the allotted time. The chow was made available in an open jar, anchored in the cage by a wire, with a metal follower covering the food to minimize spillage. Water was available ad-libitum.
Animals were fasted for 18 hours prior to testing. At the end of the fasting period, animals were administered either a test compound or vehicle. Vehicle and test compound were administered either orally (5 mL/kg) 60 minutes prior to the experiment, subcutaneously (1 mL/kg) 30 minutes prior to the experiment, or intraperitoneally (1 mL/kg) 30 minutes prior to the experiment. Test compounds were administered orally as a suspension in aqueous 0.5% methylcellulose-0.4% Tween 80, or intraperitoneally as a solution or suspension in PEG 200; compound concentrations typically ranged from 1 mg/kg to 100 mg/kg, preferably from 10–30 mg/kg. Food intake was measured at 2, 4, and 6 hours after administration by weighing the special jar containing the food before the experiment and at the specified times. Upon completion of the experiment, all animals were given a one-week washout period before re-testing.
Following the procedure described above, select compounds of the present invention were tested to measure the effect on food intake in fasted rats, as listed in Table 5 and 6.

The subject of the next test is Cortical Cells. The experiment in a line: Neurite Cell Outgrowth Assay, cortical cells. Format: cell-based. The settings on record: Rattus norvegicus; 50 nM; percent change over the vehicle response; NA = no change/not active. The method, boiled down: (§1)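 Rat E18 hippocampal or cortical neurons plated at 30,000 cells/well, treated 24 h after plating with compound at 50 nM, refreshed on day 3. At one week, fixed and MAP-2 immunostained with FITC secondary, read by fluorescence; outgrowth given as percent change versus vehicle.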

The test system of another test is human sebocytes. Put plainly: cells. Format: cell-based. As to conditions: read-out: % Inh Unknown lipid synthesis.
Another test has as its system Hippocampal Cells. The experiment in a line: Neurite Cell Outgrowth Assay, hippocampal cells. In kind it is cell-based. As to conditions: Rattus norvegicus; 50 nM; percent change over the vehicle response; NA = no change/not active. The method, boiled down:
as §1

[2] abbreviates: po, 2 h, po, read-out: Change in Food Intake 0–2 hrs (%).
[3] abbreviates: po, 6 h, po, read-out: Change in Food Intake 2–6 hrs (%).
Setting [4] is: ip, 2 h, ip, read-out: Change in Food Intake 0–2 hrs (%).
Setting [5] is: ip, 6 h, ip, read-out: Change in Food Intake 2–6 hrs (%).

Read-outs that look alike come from different tables or passages of the source.

Take `c1ccc(CNc2nc(-c3ccccc3)[n+](-c3ccccc3)s2)cc1` [Compound 84]: in test [1], the “Percent Recovery of whisker movement D9” value was 0%, the “Percent Recovery of whisker movement D10” value was determined as 4.8%, the “Percent Recovery of whisker movement D11” value was 35.1% and the “Percent Recovery of whisker movement D12” value is reported as 90.0%. For the same compound, in test [1], the “Percent Recovery of whisker movement D13” value was 98.3%, the “Percent Recovery of whisker movement D14” value is listed as 100% and the “recovery time to restore whisker muscle movement” value is recorded as “accelerated the recovery time”. The change in vivo at 30 mg/kg in the test on Food-Deprived Rats (setting [2]) is -7%. The change in vivo at 30 mg/kg in the test with Food-Deprived Rats (setting [3]) is 32%. The compound also displayed an activation at 0.05 µM in the test with Cortical Cells of 17%.
For the compound `COc1ccccc1-c1nc(Nc2ccccc2)s[n+]1-c1ccccc1OC.[Br-]` [Compound 74, 2-(2-methoxyphenyl)-3-(2-methoxyphenyl)-5-phenylamino-[1,2.4]thiadiazol-2-ium], in the test on human sebocytes, the inhibition at 0.4 µM was 75% and the inhibition at 0.6 µM worked out at 80%.
With `COc1ccccc1-[n+]1sc(Nc2ccc(C)cc2)nc1-c1ccccc1.[Br-]` [Compound 31, 2-(2-methoxyphenyl)-3-phenyl-5-p-tolylamino-[1,2,4]thiadiazol-2-ium], in test [1], the “Percent Recovery of whisker movement D9” value amounted to 0%, the “Percent Recovery of whisker movement D10” value was 3.5%, the “Percent Recovery of whisker movement D11” value was 67.8% and the “Percent Recovery of whisker movement D12” value came to 98.5%. For the same compound, in test [1], the “Percent Recovery of whisker movement D13” value came to 100%, the “Percent Recovery of whisker movement D14” value came to 100% and the “recovery time to restore whisker muscle movement” value is listed as “accelerated the recovery time”. In the test with Food-Deprived Rats (setting [4]), the change in vivo at 1 mg/kg is -20.6% and the change in vivo at 3 mg/kg was -37.8%. In the test with Food-Deprived Rats (setting [5]), the change in vivo at 1 mg/kg is -71.2% and the change in vivo at 3 mg/kg was -50%. Also, in the test on Food-Deprived Rats (setting [2]), the change in vivo at 1 mg/kg came out at 1.2%, the change in vivo at 3 mg/kg was -9%, the change in vivo at 10 mg/kg is -10.1% and the change in vivo at 30 mg/kg is -23.6%. Also, in the test on Food-Deprived Rats (setting [3]), the change in vivo at 1 mg/kg was 19.5%, the change in vivo at 3 mg/kg was 52.1%, the change in vivo at 10 mg/kg was 39.7% and the change in vivo at 30 mg/kg stood at 31.5%. Further, the activation at 0.05 µM in the test with Cortical Cells came out at 16%.
In the test with Hippocampal Cells, `COc1ccc(N(C)c2nc(-c3ccccc3)[n+](-c3ccc(C)cc3)s2)cc1` [Compound 50] came in with an activation at 0.05 µM of 46%.

Source of the values: US7049331B2, “1,2,4-thiadiazole derivatives as melanocortin receptor modulators” (Ortho-McNeil Pharmaceutical, Inc., priority 2001, dated 2006).
